Assay results as given in patent US20230074545A1, “TREATMENT OF CANCER WITH CDK12/13 INHIBITORS” (Kinnate Biopharma Inc., priority 2019, published 2023).

How the values were obtained:
Experiment in all cases: Radiometric kinase panel
Type in all cases: biochemical
TLK1 = target: T1, TLK1 (Homo sapiens, UniProt Q9UKI8)
T1 construct: purchased ProQinase GmbH (Reaction Biology)
Summary of the method: (§1)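 Activity was measured radiometrically from [gamma-33P]-ATP incorporation into substrate. The kinases were recombinant human GST- or His-tagged proteins, full-length or active fragments, expressed in Sf9 or E. coli. Compound in 10% DMSO was added before the enzyme/substrate mix, which started the reaction.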

ABL2 = target: T2, ABL2 (Homo sapiens, UniProt P42684)
T2 construct: purchased ProQinase GmbH (Reaction Biology)
Summary of the method: as §1

LIMK1 = target: T3, LIMK1 (Homo sapiens, UniProt P53667)
T3 construct: either as full-length or enzymatically active fragments; purchased ProQinase GmbH (Reaction Biology)
T3 sequence (P53667 whole entry, the tested form may be a part): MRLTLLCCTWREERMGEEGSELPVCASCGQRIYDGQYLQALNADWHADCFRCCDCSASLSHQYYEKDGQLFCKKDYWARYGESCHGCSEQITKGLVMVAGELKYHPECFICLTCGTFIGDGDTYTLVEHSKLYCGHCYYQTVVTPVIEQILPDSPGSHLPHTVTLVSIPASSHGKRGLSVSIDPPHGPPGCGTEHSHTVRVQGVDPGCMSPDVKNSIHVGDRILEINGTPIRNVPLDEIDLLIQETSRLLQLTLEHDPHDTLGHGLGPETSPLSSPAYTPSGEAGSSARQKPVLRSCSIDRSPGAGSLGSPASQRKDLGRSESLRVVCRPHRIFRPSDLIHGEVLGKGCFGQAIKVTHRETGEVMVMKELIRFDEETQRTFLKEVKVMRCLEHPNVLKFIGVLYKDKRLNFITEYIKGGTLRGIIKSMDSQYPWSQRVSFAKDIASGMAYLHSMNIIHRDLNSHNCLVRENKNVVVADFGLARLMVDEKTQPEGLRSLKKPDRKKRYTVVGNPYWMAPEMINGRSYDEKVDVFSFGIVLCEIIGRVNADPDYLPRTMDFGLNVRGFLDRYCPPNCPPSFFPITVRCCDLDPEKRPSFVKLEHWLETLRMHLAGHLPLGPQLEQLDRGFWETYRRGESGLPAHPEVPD
Summary of the method: as §1

BRSK2 = target: T4, BRSK2 (Homo sapiens, UniProt Q8IWQ3)
T4 construct: either as full-length or enzymatically active fragments; purchased ProQinase GmbH (Reaction Biology)
Summary of the method: as §1

PAK7 = target: T5, PAK7 (Homo sapiens, UniProt Q9P286)
T5 construct: either as full-length or enzymatically active fragments; purchased ProQinase GmbH (Reaction Biology); host or cells: Sf9 insect cells or E. coli
Summary of the method: as §1

ZAK = target: T6, ZAK (Homo sapiens, UniProt Q9NYL2)
T6 construct: either as full-length or enzymatically active fragments; purchased ProQinase GmbH (Reaction Biology)
T6 sequence (Q9NYL2 whole entry, the tested form may be a part): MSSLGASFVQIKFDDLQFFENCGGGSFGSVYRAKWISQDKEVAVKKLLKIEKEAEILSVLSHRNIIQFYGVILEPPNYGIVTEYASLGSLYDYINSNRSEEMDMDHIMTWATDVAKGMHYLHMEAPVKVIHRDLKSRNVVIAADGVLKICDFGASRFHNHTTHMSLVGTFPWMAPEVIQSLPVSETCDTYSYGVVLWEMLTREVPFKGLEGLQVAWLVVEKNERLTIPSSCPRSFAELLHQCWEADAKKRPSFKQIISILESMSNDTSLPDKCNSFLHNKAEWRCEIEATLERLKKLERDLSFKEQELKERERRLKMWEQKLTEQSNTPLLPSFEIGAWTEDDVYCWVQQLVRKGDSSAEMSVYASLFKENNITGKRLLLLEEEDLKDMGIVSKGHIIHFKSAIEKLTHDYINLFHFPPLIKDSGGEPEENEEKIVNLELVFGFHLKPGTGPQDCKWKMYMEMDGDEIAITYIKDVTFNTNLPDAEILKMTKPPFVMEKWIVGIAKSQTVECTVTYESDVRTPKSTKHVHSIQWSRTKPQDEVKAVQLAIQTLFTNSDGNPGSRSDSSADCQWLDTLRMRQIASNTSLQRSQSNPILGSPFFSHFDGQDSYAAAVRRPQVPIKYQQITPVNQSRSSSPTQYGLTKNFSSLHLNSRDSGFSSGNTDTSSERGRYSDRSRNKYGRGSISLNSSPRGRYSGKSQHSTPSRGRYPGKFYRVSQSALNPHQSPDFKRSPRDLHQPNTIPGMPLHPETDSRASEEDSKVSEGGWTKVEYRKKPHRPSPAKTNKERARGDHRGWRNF
Summary of the method: as §1

AuroraC = target: T7, AuroraC (Homo sapiens, UniProt Q9UQB9)
T7 construct: either as full-length or enzymatically active fragments; purchased ProQinase GmbH (Reaction Biology)
Summary of the method: as §1

PAK6 = target: T8, PAK6 (Homo sapiens, UniProt Q9NQU5)
T8 construct: either as full-length or enzymatically active fragments; purchased ProQinase GmbH (Reaction Biology)
Summary of the method: as §1

TYK2 = target: T9, TYK2 (Homo sapiens, UniProt P29597)
T9 construct: either as full-length or enzymatically active fragments; purchased ProQinase GmbH (Reaction Biology)
Summary of the method: as §1

FER = target: T10, FER (Homo sapiens, UniProt P16591)
T10 construct: either as full-length or enzymatically active fragments; purchased ProQinase GmbH (Reaction Biology); host or cells: Sf9 insect cells or E. coli
Summary of the method: as §1

EPHB4 = target: T11, EPHB4 (Homo sapiens, UniProt P54760)
T11 construct: either as full-length or enzymatically active fragments; purchased ProQinase GmbH (Reaction Biology)
Summary of the method: as §1

GRK7 = target: T12, GRK7 (Homo sapiens, UniProt Q8WTQ7)
T12 construct: either as full-length or enzymatically active fragments; purchased ProQinase GmbH (Reaction Biology)
Summary of the method: as §1

ABL1 = target: T13, ABL1 (Homo sapiens, UniProt P00519)
T13 construct: purchased ProQinase GmbH (Reaction Biology)
Summary of the method: as §1

CAMKID = target: T14, CAMKID (Homo sapiens, UniProt Q8IU85)
T14 construct: purchased ProQinase GmbH (Reaction Biology)
Summary of the method: as §1

MAP4K4 = target: T15, MAP4K4 (Homo sapiens, UniProt O95819)
T15 construct: purchased ProQinase GmbH (Reaction Biology)
Summary of the method: as §1

MKK4 = target: T16, MKK4 (Homo sapiens, UniProt P45985)
T16 construct: either as full-length or enzymatically active fragments; purchased ProQinase GmbH (Reaction Biology)
Summary of the method: as §1

IRAK1 = target: T17, IRAK1 (Homo sapiens, UniProt P51617)
T17 construct: either as full-length or enzymatically active fragments; purchased ProQinase GmbH (Reaction Biology)
Summary of the method: as §1

FGFR3 = target: T18, FGFR3 (Homo sapiens, UniProt P22607)
T18 construct: either as full-length or enzymatically active fragments; purchased ProQinase GmbH (Reaction Biology); host or cells: Sf9 insect cells or E. coli
Summary of the method: as §1

LTK = target: T19, LTK (Homo sapiens, UniProt P29376)
T19 construct: purchased ProQinase GmbH (Reaction Biology); host or cells: Sf9 insect cells or E. coli (not specified per kinase)
Summary of the method: as §1

SRC = target: T20, SRC (Homo sapiens, UniProt P12931)
T20 construct: either as full-length or enzymatically active fragments; purchased ProQinase GmbH (Reaction Biology)
T20 sequence (P12931 whole entry, the tested form may be a part): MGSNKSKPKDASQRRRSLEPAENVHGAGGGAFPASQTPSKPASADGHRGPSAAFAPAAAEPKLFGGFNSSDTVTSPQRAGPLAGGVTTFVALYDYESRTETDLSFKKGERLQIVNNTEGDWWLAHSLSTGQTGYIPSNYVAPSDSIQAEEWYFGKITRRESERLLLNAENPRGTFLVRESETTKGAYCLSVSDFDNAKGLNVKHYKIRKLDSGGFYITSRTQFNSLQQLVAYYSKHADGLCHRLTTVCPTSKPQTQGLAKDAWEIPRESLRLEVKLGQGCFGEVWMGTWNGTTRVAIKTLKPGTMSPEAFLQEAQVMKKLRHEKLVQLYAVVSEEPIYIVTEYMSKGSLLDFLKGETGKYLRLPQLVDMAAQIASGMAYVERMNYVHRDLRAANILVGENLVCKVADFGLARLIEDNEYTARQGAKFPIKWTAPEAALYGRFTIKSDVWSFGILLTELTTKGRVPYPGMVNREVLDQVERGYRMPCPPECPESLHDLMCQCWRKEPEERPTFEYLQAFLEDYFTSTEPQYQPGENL
Summary of the method: as §1

MEK1 = target: T21, MEK1 (Homo sapiens, UniProt Q02750)
T21 construct: either as full-length or enzymatically active fragments; purchased ProQinase GmbH (Reaction Biology); host or cells: Sf9 insect cells or E. coli
Summary of the method: as §1

MAPKAPK3 = target: T22, MAPKAPK3 (Homo sapiens, UniProt Q16644)
T22 construct: either as full-length or enzymatically active fragments; purchased ProQinase GmbH (Reaction Biology)
T22 sequence (Q16644 whole entry, the tested form may be a part): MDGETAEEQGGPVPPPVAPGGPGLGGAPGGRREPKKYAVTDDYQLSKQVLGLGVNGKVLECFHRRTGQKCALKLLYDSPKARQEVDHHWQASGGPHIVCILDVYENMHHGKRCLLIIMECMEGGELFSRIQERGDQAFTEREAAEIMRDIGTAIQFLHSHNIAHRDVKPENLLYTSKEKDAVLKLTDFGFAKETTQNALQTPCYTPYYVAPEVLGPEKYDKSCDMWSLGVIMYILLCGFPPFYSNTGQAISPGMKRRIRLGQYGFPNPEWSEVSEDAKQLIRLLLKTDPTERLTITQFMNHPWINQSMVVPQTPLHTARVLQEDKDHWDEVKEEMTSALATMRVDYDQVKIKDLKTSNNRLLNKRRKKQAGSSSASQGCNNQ
Summary of the method: as §1

p38delta = target: T23, p38delta (Homo sapiens, UniProt O15264)
T23 construct: either as full-length or enzymatically active fragments; purchased ProQinase GmbH (Reaction Biology)
Summary of the method: as §1

ERBB4 = target: T24, ERBB4 (Homo sapiens, UniProt Q15303)
T24 construct: either as full-length or enzymatically active fragments; purchased ProQinase GmbH (Reaction Biology); host or cells: Sf9 insect cells or E. coli (not specified per kinase)
Summary of the method: as §1

AuroraA = target: T25, AuroraA (Homo sapiens, UniProt O14965)
T25 construct: either as full-length or enzymatically active fragments; purchased ProQinase GmbH (Reaction Biology)
Summary of the method: as §1

MERTK = target: T26, MERTK (Homo sapiens, UniProt Q12866)
T26 construct: either as full-length or enzymatically active fragments; purchased ProQinase GmbH (Reaction Biology)
Summary of the method: as §1

CDK18/CycY = target: T27, CDK18/CycY (Homo sapiens, UniProt Q07002)
T27 construct: either as full-length or enzymatically active fragments; purchased ProQinase GmbH (Reaction Biology)
Summary of the method: as §1

MKK6 SDTD = target: T28, MKK6 SDTD (Homo sapiens, UniProt P52564, S207D/T211D)
T28 construct: either as full-length or enzymatically active fragments; purchased ProQinase GmbH (Reaction Biology); host or cells: Sf9 insect cells or E. coli (not specified per kinase)
T28 sequence (P52564 whole entry S207D/T211D, the tested form may be a part): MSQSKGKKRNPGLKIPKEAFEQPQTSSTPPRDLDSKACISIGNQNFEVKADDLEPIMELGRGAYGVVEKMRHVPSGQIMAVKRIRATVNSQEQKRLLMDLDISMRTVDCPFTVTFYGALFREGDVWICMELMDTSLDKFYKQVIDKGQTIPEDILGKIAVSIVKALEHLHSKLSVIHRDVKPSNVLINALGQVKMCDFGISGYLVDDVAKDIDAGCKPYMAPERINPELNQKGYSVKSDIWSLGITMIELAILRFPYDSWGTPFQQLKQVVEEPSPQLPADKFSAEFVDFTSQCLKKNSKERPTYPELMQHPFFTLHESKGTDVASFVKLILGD
Summary of the method: as §1

ALK = target: T29, ALK (Homo sapiens, UniProt Q9UM73)
T29 construct: either as full-length or enzymatically active fragments; purchased ProQinase GmbH (Reaction Biology)
T29 sequence (Q9UM73 19-1620): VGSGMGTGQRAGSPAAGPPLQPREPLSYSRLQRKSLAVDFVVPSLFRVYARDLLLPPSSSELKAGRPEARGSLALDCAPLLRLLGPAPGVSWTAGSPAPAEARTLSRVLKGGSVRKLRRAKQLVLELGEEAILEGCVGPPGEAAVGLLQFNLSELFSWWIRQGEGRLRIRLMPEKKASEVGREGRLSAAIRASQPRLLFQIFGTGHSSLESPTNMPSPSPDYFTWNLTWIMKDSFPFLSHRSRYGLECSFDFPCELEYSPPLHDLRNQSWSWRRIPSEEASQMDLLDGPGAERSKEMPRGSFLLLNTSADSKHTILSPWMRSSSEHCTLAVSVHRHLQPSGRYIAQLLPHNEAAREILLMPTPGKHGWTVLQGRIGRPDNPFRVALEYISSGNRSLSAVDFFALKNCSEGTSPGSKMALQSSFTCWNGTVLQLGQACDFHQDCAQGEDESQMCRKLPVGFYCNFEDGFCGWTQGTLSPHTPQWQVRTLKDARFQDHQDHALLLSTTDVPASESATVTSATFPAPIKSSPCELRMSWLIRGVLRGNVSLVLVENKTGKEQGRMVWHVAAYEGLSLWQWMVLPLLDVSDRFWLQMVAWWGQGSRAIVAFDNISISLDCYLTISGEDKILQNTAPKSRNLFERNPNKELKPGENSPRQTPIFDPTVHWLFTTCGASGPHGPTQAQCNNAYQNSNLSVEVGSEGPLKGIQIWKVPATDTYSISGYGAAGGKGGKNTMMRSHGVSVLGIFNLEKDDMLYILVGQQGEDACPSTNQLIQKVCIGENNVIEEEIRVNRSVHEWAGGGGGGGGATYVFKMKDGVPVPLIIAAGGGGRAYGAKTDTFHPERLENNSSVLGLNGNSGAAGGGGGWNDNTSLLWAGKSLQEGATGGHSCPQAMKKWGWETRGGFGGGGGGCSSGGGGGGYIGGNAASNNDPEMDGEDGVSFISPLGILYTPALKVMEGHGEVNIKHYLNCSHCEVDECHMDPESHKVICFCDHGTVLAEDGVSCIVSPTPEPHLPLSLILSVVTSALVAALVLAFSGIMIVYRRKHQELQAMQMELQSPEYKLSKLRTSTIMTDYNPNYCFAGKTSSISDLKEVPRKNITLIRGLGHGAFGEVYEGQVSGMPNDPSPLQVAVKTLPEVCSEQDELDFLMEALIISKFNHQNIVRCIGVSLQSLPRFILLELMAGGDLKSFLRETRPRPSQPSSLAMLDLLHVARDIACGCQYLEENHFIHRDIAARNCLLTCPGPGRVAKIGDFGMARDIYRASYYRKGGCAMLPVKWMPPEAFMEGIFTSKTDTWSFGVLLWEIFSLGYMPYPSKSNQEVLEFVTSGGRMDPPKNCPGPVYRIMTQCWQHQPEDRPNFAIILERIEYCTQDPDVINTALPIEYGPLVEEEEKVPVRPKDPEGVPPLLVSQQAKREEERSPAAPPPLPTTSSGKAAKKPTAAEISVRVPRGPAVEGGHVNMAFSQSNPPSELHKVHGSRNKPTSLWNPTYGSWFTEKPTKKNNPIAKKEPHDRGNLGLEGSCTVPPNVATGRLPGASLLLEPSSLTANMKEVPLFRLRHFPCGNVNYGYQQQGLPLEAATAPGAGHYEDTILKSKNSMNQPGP
Summary of the method: as §1

MAP3K1 = target: T30, MAP3K1 (Homo sapiens, UniProt Q13233)
T30 construct: either as full-length or enzymatically active fragments; purchased ProQinase GmbH (Reaction Biology); host or cells: Sf9 insect cells or E. coli (not specified per kinase)
Summary of the method: as §1

PDK1 = target: T31, PDK1 (Homo sapiens, UniProt O15530)
T31 construct: either as full-length or enzymatically active fragments; purchased ProQinase GmbH (Reaction Biology)
Summary of the method: as §1

T1 sequence (Q9UKI8 whole entry): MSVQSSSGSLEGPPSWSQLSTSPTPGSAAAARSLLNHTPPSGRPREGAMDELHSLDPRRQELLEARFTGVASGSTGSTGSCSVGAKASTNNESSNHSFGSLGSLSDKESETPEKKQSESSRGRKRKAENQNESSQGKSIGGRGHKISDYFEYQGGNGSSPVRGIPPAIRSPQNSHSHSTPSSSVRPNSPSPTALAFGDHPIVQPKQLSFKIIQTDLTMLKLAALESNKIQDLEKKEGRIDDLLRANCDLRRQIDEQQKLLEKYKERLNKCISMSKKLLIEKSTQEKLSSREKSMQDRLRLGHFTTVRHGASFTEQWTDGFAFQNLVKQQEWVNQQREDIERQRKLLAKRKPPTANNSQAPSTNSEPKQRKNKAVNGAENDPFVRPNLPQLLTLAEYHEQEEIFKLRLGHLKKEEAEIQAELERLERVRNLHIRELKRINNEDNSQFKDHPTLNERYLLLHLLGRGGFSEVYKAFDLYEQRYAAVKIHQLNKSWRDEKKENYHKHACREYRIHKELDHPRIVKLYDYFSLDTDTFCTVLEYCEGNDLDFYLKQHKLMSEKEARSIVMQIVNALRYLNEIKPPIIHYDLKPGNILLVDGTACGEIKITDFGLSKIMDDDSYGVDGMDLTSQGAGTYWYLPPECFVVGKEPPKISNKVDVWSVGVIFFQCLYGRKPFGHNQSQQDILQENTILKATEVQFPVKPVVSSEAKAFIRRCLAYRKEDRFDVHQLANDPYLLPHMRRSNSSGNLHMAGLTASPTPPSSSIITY

For `C=CC(=O)Nc1ccc(C(=O)N2CC[C@@H](Nc3ncc(C#N)cn3)C2)cc1` [Compound 4, (R)-N-(4-(3-((5-cyanopyrimidin-2-yl)amino)pyrrolidine-1-carbonyl)phenyl)acrylamide], the inhibition at 1 µM (TLK1) was -1%, the inhibition at 1 µM (ABL2) was -1% and the inhibition at 1 µM (LIMK1) was 7%. It also gave an inhibition at 1 µM (BRSK2) of -10%, an inhibition at 1 µM (PAK7) of 12% and an inhibition at 1 µM (ZAK) of -4%. The inhibition at 1 µM (AuroraC) was 16%, the inhibition at 1 µM (PAK6) was 4% and the inhibition at 1 µM (TYK2) was 6%. For the same compound, the inhibition at 1 µM (FER) was 15%, the inhibition at 1 µM (EPHB4) was -4% and the inhibition at 1 µM (GRK7) was -5%. The inhibition at 1 µM (ABL1) was -1%, the inhibition at 1 µM (CAMKID) was 0% and the inhibition at 1 µM (MAP4K4) was 0%. For the same compound, the inhibition at 1 µM (MKK4) was 4%, the inhibition at 1 µM (IRAK1) was 2% and the inhibition at 1 µM (FGFR3) was -16%. It also gave an inhibition at 1 µM (LTK) of 1%, an inhibition at 1 µM (SRC) of -5% and an inhibition at 1 µM (MEK1) of 13%. The inhibition at 1 µM (MAPKAPK3) was 8%, the inhibition at 1 µM (p38delta) was 5% and the inhibition at 1 µM (ERBB4) was 9%. For the same compound, the inhibition at 1 µM (AuroraA) was 5%, the inhibition at 1 µM (MERTK) was -8% and the inhibition at 1 µM (CDK18/CycY) was 20%. For the same compound, the inhibition at 1 µM (MKK6 SDTD) was 11%, the inhibition at 1 µM (ALK) was 8% and the inhibition at 1 µM (MAP3K1) was 9%. It also gave an inhibition at 1 µM (PDK1) of -7%.
